Target: α2β1 (Homo sapiens, UniProt P05556+P17301)
Experiment: α2β1 cell adhesion
Format: cell-based

Chain of α2β1 (P17301 30-1181): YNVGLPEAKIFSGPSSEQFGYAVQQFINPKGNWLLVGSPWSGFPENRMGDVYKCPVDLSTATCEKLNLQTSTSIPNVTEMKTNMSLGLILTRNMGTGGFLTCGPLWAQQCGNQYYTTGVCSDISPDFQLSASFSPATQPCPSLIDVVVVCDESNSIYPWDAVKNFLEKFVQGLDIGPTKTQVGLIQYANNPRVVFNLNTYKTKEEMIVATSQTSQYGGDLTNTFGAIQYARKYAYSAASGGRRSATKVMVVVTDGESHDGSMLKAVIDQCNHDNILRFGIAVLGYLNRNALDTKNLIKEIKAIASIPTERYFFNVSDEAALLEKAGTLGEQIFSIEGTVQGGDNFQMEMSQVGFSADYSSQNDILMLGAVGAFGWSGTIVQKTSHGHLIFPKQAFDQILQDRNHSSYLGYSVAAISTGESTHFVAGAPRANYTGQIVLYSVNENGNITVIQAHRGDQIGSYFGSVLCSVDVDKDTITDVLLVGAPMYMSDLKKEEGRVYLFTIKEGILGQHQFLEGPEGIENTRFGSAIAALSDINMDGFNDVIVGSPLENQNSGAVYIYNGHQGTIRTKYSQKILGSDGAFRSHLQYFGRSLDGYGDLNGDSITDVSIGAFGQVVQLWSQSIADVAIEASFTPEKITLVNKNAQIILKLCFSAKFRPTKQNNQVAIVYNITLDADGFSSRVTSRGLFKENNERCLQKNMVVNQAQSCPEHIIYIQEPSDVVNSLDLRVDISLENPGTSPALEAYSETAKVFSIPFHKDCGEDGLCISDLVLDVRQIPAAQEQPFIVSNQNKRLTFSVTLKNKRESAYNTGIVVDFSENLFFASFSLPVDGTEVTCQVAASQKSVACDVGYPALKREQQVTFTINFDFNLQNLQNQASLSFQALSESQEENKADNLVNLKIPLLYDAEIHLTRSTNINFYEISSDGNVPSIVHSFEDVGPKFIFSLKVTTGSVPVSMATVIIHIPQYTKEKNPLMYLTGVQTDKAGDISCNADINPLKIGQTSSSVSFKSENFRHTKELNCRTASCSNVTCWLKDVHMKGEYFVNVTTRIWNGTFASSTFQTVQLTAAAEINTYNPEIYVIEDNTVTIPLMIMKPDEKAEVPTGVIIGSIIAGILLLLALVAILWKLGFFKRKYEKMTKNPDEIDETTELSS
Chain of α2β1 (P05556 21-798): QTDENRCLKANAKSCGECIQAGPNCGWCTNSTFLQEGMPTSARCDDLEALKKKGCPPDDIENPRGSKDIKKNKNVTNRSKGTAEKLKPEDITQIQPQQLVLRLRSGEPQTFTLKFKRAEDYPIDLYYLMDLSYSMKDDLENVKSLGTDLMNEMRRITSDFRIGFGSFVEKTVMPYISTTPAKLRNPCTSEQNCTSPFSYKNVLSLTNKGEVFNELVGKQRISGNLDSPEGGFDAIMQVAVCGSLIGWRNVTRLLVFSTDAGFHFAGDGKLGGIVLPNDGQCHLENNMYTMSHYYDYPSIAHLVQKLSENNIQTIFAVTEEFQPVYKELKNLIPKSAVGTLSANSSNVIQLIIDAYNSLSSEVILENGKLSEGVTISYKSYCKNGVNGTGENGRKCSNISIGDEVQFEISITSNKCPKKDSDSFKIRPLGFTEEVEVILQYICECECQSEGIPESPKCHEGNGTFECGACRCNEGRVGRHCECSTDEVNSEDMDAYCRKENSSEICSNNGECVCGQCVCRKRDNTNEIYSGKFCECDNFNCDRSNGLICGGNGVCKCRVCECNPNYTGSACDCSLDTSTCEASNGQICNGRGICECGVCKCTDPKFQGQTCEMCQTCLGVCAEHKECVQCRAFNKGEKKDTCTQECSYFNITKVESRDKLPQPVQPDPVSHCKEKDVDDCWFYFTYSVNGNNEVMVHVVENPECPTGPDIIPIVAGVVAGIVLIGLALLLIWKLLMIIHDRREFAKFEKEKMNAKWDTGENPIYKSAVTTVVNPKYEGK

SMILES | IC50 [µM]
C[C@H](NC(=O)c1cc(Cl)c(C(=O)N[C@@H](CNC(=O)N[C@@H]2CCc3ccccc32)C(=O)O)c(Cl)c1)c1ccccc1 [SU15210-0224-01, (S)-2-(2,6-dichloro-4-((S)-1-phenylethylcarbamoyl)benzamido)-3-(3-((R)-2,3-dihydro-1H-inden-1-yl)ureido)propanoic Acid] | 1 to 5
CC1(C)CCC(NC(=O)NC[C@H](NC(=O)c2c(Cl)cc(C(=O)NCc3cccc(O)c3)cc2Cl)C(=O)O)c2ccccc21 (stereo partly drawn) [SU15210-0187-01, (2S)-2-(2,6-dichloro-4-(3-hydroxybenzylcarbamoyl)benzamido)-3-(3-(4,4-dimethyl-1,2,3,4-tetrahydronaphthalen-1-yl)ureido)propanoic Acid] | < 0.5
O=C(NC[C@H](NC(=O)c1c(Cl)cc(C(=O)N2CC(c3ccccc3)C2)cc1Cl)C(=O)O)N[C@@H]1CCc2ccccc21 [SU15210-0234-01] | < 0.5
O=C(NC[C@H](NC(=O)c1c(Cl)cc2c(c1Cl)CCN(Cc1ccccc1)C2=O)C(=O)O)N[C@@H]1CCc2ccccc21 [SU15210-0211-01, (S)-2-(2-benzyl-5,7-dichloro-1-oxo-1,2,3,4-tetrahydroisoquinoline-6-carboxamido)-3-(3-((R)-2,3-dihydro-1H-inden-1-yl)ureido)propanoic Acid] | < 0.5
CN(Cc1ccccc1)C(=O)NC[C@H](NC(=O)c1c(Cl)cc(C(=O)NCc2cccc(Cl)c2)cc1Cl)C(=O)O [SU15210-0223-01, (S)-3-(3-benzyl-3-methylureido)-2-(2,6-dichloro-4-(3-chlorobenzylcarbamoyl)benzamido)propanoic Acid] | < 0.5
O=C(NC[C@H](NC(=O)c1c(Cl)cc(-c2ccccc2)cc1Cl)C(=O)O)N[C@@H]1CCc2ccccc21 [SU15210-0140-01] | > 5
O=C(NC[C@H](NC(=O)c1c(Cl)cc2c(c1Cl)CCN(C(=O)c1cccc(Cl)c1)C2)C(=O)O)N[C@@H]1CCc2ccccc21 [SU15210-0209-01, (S)-2-(5,7-dichloro-2-(3-chlorobenzoyl)-1,2,3,4-tetrahydroisoquinoline-6-carboxamido)-3-(3-((R)-2,3-dihydro-1H-inden-1-yl)ureido)propanoic Acid] | < 0.5
O=C(NC[C@H](NC(=O)c1c(Cl)cc(-n2cnc(-c3ccccc3)c2)cc1Cl)C(=O)O)N[C@@H]1CCc2ccccc21 [SU15210-0192-01, (S)-2-(2,6-dichloro-4-(4-phenyl-1H-imidazol-1-yl)benzamido)-3-(3-((R)-2,3-dihydro-1H-inden-1-yl)ureido)propanoic Acid] | 1 to 5
CC(C)CCNc1ccc(Cl)c(C(=O)N[C@@H](CNC(=O)N[C@@H]2CCc3ccccc32)C(=O)O)c1Cl [SU15210-0125-01, (S)-2-(2,6-dichloro-3-(isopentylamino)benzamido)-3-(3-((R)-2,3-dihydro-1H-inden-1-yl)ureido)propanoic Acid] | 1 to 5
O=C(NC[C@H](NC(=O)c1c(Cl)cc2c(c1Cl)CCN(S(=O)(=O)c1ccccc1)C2)C(=O)O)N[C@@H]1CCc2ccccc21 [SU15210-0214-01, (S)-2-(5,7-dichloro-2-(phenylsulfonyl)-1,2,3,4-tetrahydroisoquinoline-6-carboxamido)-3-(3-((R)-2,3-dihydro-1H-inden-1-yl)ureido)propanoic Acid] | 1 to 5
O=C(NC[C@H](NC(=O)c1c(Cl)cc(C(=O)N2Cc3ccccc3C2)cc1Cl)C(=O)O)N[C@@H]1CCc2ccccc21 [SU15210-0228-01, (S)-2-(2,6-dichloro-4-(isoindoline-2-carbonyl)benzamido)-3-(3-((R)-2,3-dihydro-1H-inden-1-yl)ureido)propanoic Acid] | 1 to 5
O=C(NC[C@H](NC(=O)c1c(Cl)cc2c(c1Cl)CCNC2)C(=O)O)N[C@@H]1CCc2ccccc21 [SU15210-0171-01] | > 5
CN(Cc1cccc(Cl)c1)C(=O)c1cc(Cl)c(C(=O)N[C@@H](CNC(=O)N[C@@H]2CCc3ccccc32)C(=O)O)c(Cl)c1 [SU15210-0226-01, (S)-2-(2,6-dichloro-4-((3-chlorobenzyl)(methyl)carbamoyl)benzamido)-3-(3-((R)-2,3-dihydro-1H-inden-1-yl)ureido)propanoic Acid] | 0.5 to 1
O=C(NC[C@H](NC(=O)c1c(Cl)cc(N2CC(c3ccccc3)C2)cc1Cl)C(=O)O)N[C@@H]1CCc2ccccc21 [SU15210-0190-01] | > 5
CC(=O)N1CCc2c(cc(Cl)c(C(=O)N[C@@H](CNC(=O)N[C@@H]3CCc4ccccc43)C(=O)O)c2Cl)C1 [SU15210-0174-01] | 1 to 5
O=C(NC[C@H](NC(=O)c1c(Cl)ccc(NC2CCc3ccccc3C2)c1Cl)C(=O)O)N[C@@H]1CCc2ccccc21 (stereo partly drawn) [SU15210-0126-01, (2S)-2-(2,6-dichloro-3-(1,2,3,4-tetrahydronaphthalen-2-ylamino)benzamido)-3-(3-((R)-2,3-dihydro-1H-inden-1-yl)ureido)propanoic Acid] | 1 to 5
C[C@@H](NC(=O)c1cc(Cl)c(C(=O)N[C@@H](CNC(=O)N[C@@H]2CCc3ccccc32)C(=O)O)c(Cl)c1)c1ccccc1 [SU15210-0225-01, (S)-2-(2,6-dichloro-4-((R)-1-phenylethylcarbamoyl)benzamido)-3-(3-((R)-2,3-dihydro-1H-inden-1-yl)ureido)propanoic Acid] | < 0.5
O=C(NC[C@H](NC(=O)c1c(Cl)cc(OCCc2ccccc2)cc1Cl)C(=O)O)N[C@@H]1CCc2ccccc21 [SU15210-0188-01, (S)-2-(2,6-dichloro-4-phenethoxybenzamido)-3-(3-((R)-2,3-dihydro-1H-inden-1-yl)ureido)propanoic Acid] | 1 to 5
O=C(NC[C@H](NC(=O)c1c(Cl)cc(C(=O)N2CCc3ccccc3C2)cc1Cl)C(=O)O)N[C@@H]1CCc2ccccc21 [SU15210-0227-01, (S)-2-(2,6-dichloro-4-(1,2,3,4-tetrahydroisoquinoline-2-carbonyl)benzamido)-3-(3-((R)-2,3-dihydro-1H-inden-1-yl)ureido)propanoic Acid] | 0.5 to 1
O=C(NC[C@H](NC(=O)c1c(Cl)cc(COCc2ccccc2)cc1Cl)C(=O)O)N[C@@H]1CCc2ccccc21 [SU15210-0189-01, (S)-2-(4-(benzyloxymethyl)-2,6-dichlorobenzamido)-3-(3-((R)-2,3-dihydro-1H-inden-1-yl)ureido)propanoic Acid] | 0.5 to 1

More lines, now with the values ahead:

IC50 [µM] | SMILES
1 to 5 | O=C(NC[C@H](NC(=O)c1c(Cl)cc2c(c1Cl)CCN(Cc1ccc(F)cc1)C2)C(=O)O)N[C@@H]1CCc2ccccc21 [SU15210-0210-01, (S)-2-(5,7-dichloro-2-(4-fluorobenzyl)-1,2,3,4-tetrahydroisoquinoline-6-carboxamido)-3-(3-((R)-2,3-dihydro-1H-inden-1-yl)ureido)propanoic Acid]
0.5 to 1 | Nc1ccc(Cl)c(C(=O)N[C@@H](CNC(=O)N[C@@H]2CCc3ccccc32)C(=O)O)c1Cl [SU15210-0084-01, (S)-2-(3-amino-2,6-dichlorobenzamido)-3-(3-((R)-2,3-dihydro-1H-inden-1-yl)ureido)propanoic Acid]
0.5 to 1 | O=C(Cc1ccc(F)c(Cl)c1)Nc1ccc(Cl)c(C(=O)N[C@@H](CNC(=O)N[C@@H]2CCc3ccccc32)C(=O)O)c1Cl [SU15210-0155-01, (S)-2-(2,6-dichloro-3-(2-(3-chloro-4-fluorophenyl)acetamido)benzamido)-3-(3-((R)-2,3-dihydro-1H-inden-1-yl)ureido)propanoic Acid]
1 to 5 | O=C(NC[C@H](NC(=O)c1c(Cl)ccc(NCCc2ccccc2)c1Cl)C(=O)O)N[C@@H]1CCc2ccccc21 [SU15210-0097-01, (S)-2-(2,6-dichloro-3-(phenethylamino)benzamido)-3-(3-((R)-2,3-dihydro-1H-inden-1-yl)ureido)propanoic Acid]
0.5 to 1 | CC(C)c1cccc(Nc2ccc(Cl)c(C(=O)N[C@@H](CNC(=O)N[C@@H]3CCc4ccccc43)C(=O)O)c2Cl)c1 [SU15210-0078-01, (S)-2-(2,6-dichloro-3-(3-isopropylphenylamino)benzamido)-3-(3-((R)-2,3-dihydro-1H-inden-1-yl)ureido)propanoic Acid]
1 to 5 | O=C(NC[C@H](NC(=O)c1c(Cl)ccc(N2CC(c3ccc(Cl)cc3)C2)c1Cl)C(=O)O)N[C@@H]1CCc2ccccc21 [SU15210-0163-01, (S)-2-(2,6-dichloro-3-(3-(4-chlorophenyl)azetidin-1-yl)benzamido)-3-(3-((R)-2,3-dihydro-1H-inden-1-yl)ureido)propanoic Acid]
0.5 to 1 | Cc1cccc(CC(=O)Nc2ccc(Cl)c(C(=O)N[C@@H](CNC(=O)N[C@@H]3CCc4ccccc43)C(=O)O)c2Cl)c1 [SU15210-0156-01, (S)-2-(2,6-dichloro-3-(2-m-tolylacetamido)benzamido)-3-(3-((R)-2,3-dihydro-1H-inden-1-yl)ureido)propanoic Acid]
1 to 5 | Cc1ccc(CC(=O)Nc2ccc(Cl)c(C(=O)N[C@@H](CNC(=O)N[C@@H]3CCc4ccccc43)C(=O)O)c2Cl)cc1Cl [SU15210-0154-01, (S)-2-(2,6-dichloro-3-(2-(3-chloro-4-methylphenyl)acetamido)benzamido)-3-(3-((R)-2,3-dihydro-1H-inden-1-yl)ureido)propanoic Acid]
< 0.5 | O=C(NC[C@H](NC(=O)c1c(Cl)cc2c(c1Cl)CCN(C(=O)c1ccc(Cl)cc1)C2)C(=O)O)N[C@@H]1CCc2ccccc21 [SU15210-0208-01, (S)-2-(5,7-dichloro-2-(4-chlorobenzoyl)-1,2,3,4-tetrahydroisoquinoline-6-carboxamido)-3-(3-((R)-2,3-dihydro-1H-inden-1-yl)ureido)propanoic Acid]
< 0.5 | O=C(Cc1cccc(Cl)c1)Nc1cc(Cl)c(C(=O)N[C@@H](CNC(=O)N[C@@H]2CCc3ccccc32)C(=O)O)c(Cl)c1 [SU15210-0235-01, (S)-2-(2,6-dichloro-4-(2-(3-chlorophenyl)acetamido)benzamido)-3-(3-((R)-2,3-dihydro-1H-inden-1-yl)ureido)propanoic Acid]
< 0.5 | O=C(Cc1cccc(Cl)c1)Nc1ccc(Cl)c(C(=O)N[C@@H](CNC(=O)NCc2ccccc2O)C(=O)O)c1Cl [SU15210-0159-01, (S)-2-(2,6-dichloro-3-(2-(3-chlorophenyl)acetamido)benzamido)-3-(3-(2-hydroxybenzyl)ureido)propanoic Acid]
